Reference: patent publication US20060148710A1, “Oligopeptides, composition and use thereof as elicitors of the natural defences of plants” (DE Sangosse SA, priority 2003, published 2006)
Several values for one entry are separate records, joined by “and”; a condition that tells them apart may be missing. Equal entries are not always repeated.

Key:
Zucchini plants = experiment: Peroxydasic activity in treated zucchini plants; type: in vivo; settings: for Peroxydasic activity / Percent of peroxydasic activity relative to the product: zucchini plants aged 3 weeks, product 3.5 mg/L; for Percent of peroxydasic activity relative to the product: product 6 = 100%; for elicitor activity: zucchini plants, comparison in words
From the text: (§1) a) Measurement of the Peroxydasic Acttivity (Enzyme Endogenous to Plants)
(§2) Given the primordial role of the peroxydases in the resistance of plants, we have used the peroxydasic activity as a marker of the resistance following treatments by elicitors.
(§3) So as to measure the peroxydasic activities, leaves are crushed in a citrate-monohydrogeno-phosphate-disodium buffer. The extract is then placed in gaiacol and oxygenated water. A rapid reaction takes place: the gaiacol is transformed into tetragaiacol. The appearance of tetragaiacol in the medium permits us to calculate the peroxydasic activity.
(§4) Measurements are carried out in this same buffer by using the gaiacol as substrate. The results are expressed in ΔDO/mn/g of fresh material.
(§5) All the plants tested are young plants obtained from seed or by slipping. Pulverization is effected of the formulations obtained from oligopeptides. These formulations contain various wetting or penetrating agents capable of carrying the active material (oligopeptides) to the cells.
Zucchini plants aged 3 weeks have been treated with oligopeptides.

tobacco plants = settings: 10 mM; cited from earlier work
Grape plants [1] = experiment: Chitinasic activity in treated grape plants; type: in vivo; settings: grape plants aged 3 weeks
Protocol: b) Measurement of the Chitinasic Activity
So as to verify that the mechanisms of resistance are triggered, we have also measured an enzymatic activity appearing in the situations of resistance: the chitinasic activity (enzyme synthesis upon attack of the parasites, which degrades chitin, constituting the walls of the phytopathogenic mushrooms).
Colormetric reaction used: there is used an acetate buffer:
Solution of chitin+enzymatic extract+acetate buffer qsp 0.5 ml (blue at 2 mg/ml) crude 50 mM-(pH5) (100 microliters)
incubation for 30 minutes at 37° C., and under continuous agitation.
the reaction is stopped by addition of a solution of HCL 1N
colormetric or spectrophotometric measurement at 550 nm
The chitinasic activity is expressed as ΔDO/mn/g of fresh material.
as §5
(§6) Grape plants aged 3 weeks have been treated with oligopeptides. The results obtained are assembled in Tables II, III (Sheet 1/2).

Grape plants [2] = experiment: Peroxydasic activity in treated grape plants; type: in vivo; settings: grape plants aged 3 weeks
From the text: as §1, §2, §3, §4, §5, §6

Compound	Peroxydasic activity (Zucchini plants)	Percent of peroxydasic activity relative to the product (Zucchini plants)	further results
C[C@H](N)C(=O)O [Alanine, reference compound]	65.78 ΔDO/min/aMF	18.9%	–
CCC(N)C(=O)O (stereo not drawn) [α-aminobutyric acid]	–	–	capacity to trigger the ARS (tobacco plants): less active
H-Alan-Ala-OH [Product 13]	–	–	Chitinasic activity (Grape plants [1]): 65.3 ΔDO/mn/g of fresh material; Percent of chitinasic activity relative to the most active product (Grape plants [1]): 100%; Percent of peroxydasic activity relative to the most active product (Grape plants [2]): 59.49%; Peroxydasic activity (Grape plants [2]): 136.6 ΔDO/mn/g of fresh material
H-Ala4-Ala-ol [Product 10]	194 ΔDO/min/aMF	55.74%	–
H-Ala1-Ala-ol [Product 7]	99.16 ΔDO/min/aMF	28.49%	–
H-Ala6-Ala-OH [Product 12]	175 ΔDO/min/aMF	50% and 50.28%	–
H-Ala3-Ala-ol [Product 9]	112 ΔDO/min/aMF	32.18%	–
NCCCC(=O)O [GABA, γ-aminobutyric acid, reference compound]	49.1 ΔDO/min/aMF	14.11%	capacity to trigger the ARS (tobacco plants): totally inactive
CC(N)CC(=O)O (stereo not drawn) [β-aminobutyric acid]	–	–	capacity to trigger the ARS (tobacco plants): active
H-Alan-Ala-ol [Product 6]	348 ΔDO/min/aMF	100%	Chitinasic activity (Grape plants [1]): 45.4 ΔDO/mn/g of fresh material; Percent of chitinasic activity relative to the most active product (Grape plants [1]): 80.94%; elicitor activity (Zucchini plants): strongest elicitor activity; Percent of peroxydasic activity relative to the most active product (Grape plants [2]): 81.66%; Peroxydasic activity (Grape plants [2]): 187.5 ΔDO/mn/g of fresh material
CC(C)(N)C(=O)O [Aib, α-aminoisobutyric acid, reference compound]	53.1 ΔDO/min/aMF	15.26%	–
H-Ala5-Ala-ol [Product 11]	102 ΔDO/min/aMF	29.31%	–
H-Ala2-Ala-ol [Product 8]	94.6 ΔDO/min/aMF	27.18%	–
CC(N)CO (centres unmarked) [Alininol, Alaninol, reference compound]	69.46 ΔDO/min/aMF	19.96%	elicitor activity (Zucchini plants): most active of the residues tested
